From patent US10759796B2, “CXCR4 inhibitors and uses thereof” (X4 Pharmaceuticals, Inc., priority 2016, dated 2020) come the findings set out here.

Data set [1] can be described thus: Fraction of drug unbound to brain proteins, mouse. It is filed as in vitro ADME. The settings on record: read-out: Fu (b) %.
The nature of data set [2]: Fraction of drug unbound to plasma proteins, mouse. The data set is classed as in vitro ADME. The note with it: read-out: Fu (p) %.
A short description of data set [3]: in vitro. The settings on record: human, Caco-2, pH 7.4. In outline:
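Compounds at 10 μM in HBSS pH 7.4 (0.1–0.3% DMSO) were dosed on Caco-2 monolayers, apical-to-basolateral and basolateral-to-apical, for 90 min at 37 °C, in duplicate. Monolayer integrity was checked by TEER and lucifer yellow flux, read by fluorescence at 485/535 nm. Compound was quantified by LC-MS/MS and Papp calculated.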

Data set [4] is described as follows: Mouse brain uptake assay (pharmacokinetics and brain penetration after IV administration), 0-1 h, 3 time points. It is filed as in vivo, Male CD1 Mice. The settings on record: male; for Kp uu: CD1, brain and plasma, read-out: Kp, uu (unbound brain/unbound plasma drug concentration ratio); for Kp uu / clearance / half-life: Mouse, 0-1 h; for Kp uu / clearance / half-life / AUC(0-t): 3 mg/kg IV; for Kp: CD1, mouse, brain and plasma, iv, 3 mg/kg, read-out: Kp (brain/plasma drug concentration ratio); for clearance / half-life: CD1, plasma, 3 time points; for half-life: read-out: t½ (converted); for AUC(0-t): CD1, time zero to 1 hr. On the procedure: Example 29: Pharmacokinetics and Brain Penetration Experiment to Determine Brain and Plasma Concentrations of Compounds After IV Administration to Male CD1 Mice or Male SD Rat
The study design (9 animals) consisted of administrating the drug (IV: 3 mg/kg (5 mL/kg) via tail vein injection) and collecting samples at terminal bleeding for plasma and brain at 0.083, 0.5 and 1 h. The blood collection was performed as follows: the animal was restrained manually and approximately 150 μL blood/time point was collected into a dipotassium EDTA tube via retro orbital puncture under anesthesia with isoflurane. The blood sample was put on ice and centrifuged to obtain a plasma sample (2000 g, 5 min under 4° C.) within 15 minutes. The brain collection was performed as follows: a mid-line incision was made in the animal's scalp and the skin was retracted. Using small bone cutters and rongeurs, the skull overlying the brain was removed. The brain was removed using a spatula and the brain rinsed with cold saline. The brain was placed in screw-top tubes, and the tubes were stored at −70° C. until analysis. The IV dosing solution was prepared in 50 mM citrate buffer (pH 4.0) at 0.6 mg/mL.
Plasma Sample Preparation:
An aliquot of 30 μL sample was added to 150 μL MeCN containing 50 ng/mL IS (Dexamethasone). The mixture was vortexed for 5 min and centrifuged at 14,000 rpm for 5 min. An aliquot of 5 μL supernatant was injected for LC-MS/MS analysis.
Brain Sample Preparation:
An aliquot of 30 μL brain homogenate (brain:PBS=1:3, w/v) sample was added to 150 μL IS in ACN (Dexamethasone, 50 ng/mL). The mixture was vortexed for 5 min and centrifuged at 14,000 rpm for 5 min. An aliquot of 5 μL supernatant was injected for LC-MS/MS analysis.
The sample analysis was performed on LCMS/MS-003 (API4000, triple quadruple) under the following conditions: positive ion, ESI, MRM detection using dexamethasone as internal standard. HPLC conditions: mobile phase A: H2O (0.025% formic acid (FA) with 1 mM NH4OAc); mobile phase B: MeOH (0.025% FA with 1 mM NH4OAc) on Waters X-Bridge C18 (2.1×50 mm, 2.5 μm) column at 60° C.

Setting [5] is: Mouse plasma proteins (Table 9).
Setting [6] is: Mouse brain, read-out: AUClast (b).
Setting [7] is: Mouse plasma, read-out: AUClast (p).

The structures appear in SMILES notation. Read-outs that look alike come from different tables or passages of the source.

What is called Papp A→B is the apparent permeability from the apical to the basolateral side of a cell layer. Lower therefore signals slow passage. Broadly, the Papp B→A is how fast a substance crosses the layer from the basolateral side. The efflux ratio is a quotient of directional permeabilities that is used to spot active efflux. As usually defined, the clearance is a measure of how efficiently the substance is removed, as volume per time. Higher therefore signals a high capacity for elimination. Take `CN1CCN(c2cccc3nc([C@H]4CCC[C@@H](c5ncccc5Cl)N4)cn23)CC1` (racemic) [Compound I-149]: the fraction unbound in data set [1] (Mouse brain proteins (Table 9)) worked out at 0.026. Also, the fraction unbound in data set [2] (setting [5]) came to 0.099. Also, in data set [3], the Papp A→B at 90 min, 10 μM is 10 to 30 ×10⁻⁶ cm/s; the Papp B→A at 90 min, 10 μM is 10 to 30 ×10⁻⁶ cm/s; the efflux ratio at 90 min, 10 μM lay in the range of 0.1 to 10. In data set [4], the Kp uu stood at 0.38, the Kp was determined as 1.45, the clearance was 207 mL/min/kg and the half-life is 22 min. Also, the AUC(0-t) in data set [4] (setting [6]) came to 295 ng·h/mL. For the same molecule, the AUC(0-t) in data set [4] (setting [7]) came to 203 ng·h/mL.

For the molecule `CN1CCN(c2cccc3nc([C@H]4CCC[C@@H](c5ncccc5Cl)N4)cn23)CC1` (single isomer, unassigned) [Compound I-188], in data set [1] (Mouse brain proteins (Table 12)), the fraction unbound was 0.054. In data set [2] (Mouse plasma proteins (Table 12)), the fraction unbound came to 0.143. For the same molecule, in data set [3], the Papp A→B at 90 min, 10 μM fell in the range of 10 to 30 ×10⁻⁶ cm/s; the Papp B→A at 90 min, 10 μM was in the range of 10 to 30 ×10⁻⁶ cm/s; the efflux ratio at 90 min, 10 μM lay in the range of 0.1 to 10.

In the case of `CN1CCN(c2cccc3nc([C@@H]4CCC[C@H](c5ncccc5Cl)N4)cn23)CC1` (single isomer, unassigned) [Compound I-189], in data set [3], the Papp A→B at 90 min, 10 μM lay in the range of 10 to 30 ×10⁻⁶ cm/s; the Papp B→A at 90 min, 10 μM lay within 10 to 30 ×10⁻⁶ cm/s; the efflux ratio at 90 min, 10 μM lay within 0.1 to 10.

Consider `Cc1cccnc1[C@@H]1CCC[C@H](c2cn3c(-c4cccnc4)cccc3n2)N1C` [Compound I-6], for which, in data set [3], the Papp A→B at 90 min, 10 μM was in the range of 10 to 30 ×10⁻⁶ cm/s; the Papp B→A at 90 min, 10 μM fell in the range of 10 to 30 ×10⁻⁶ cm/s; the efflux ratio at 90 min, 10 μM fell in the range of 0.1 to 10. In data set [4], the Kp was 0.61, the clearance was 48.3 mL/min/kg and the half-life is 216 min. In addition, the AUC(0-t) in data set [4] (setting [6]) stood at 326 ng·h/mL. The AUC(0-t) in data set [4] (setting [7]) was 531 ng·h/mL.

Turning to `Cc1cccnc1[C@@H]1CCC[C@H](c2nc3cccc(N4CCN(C)CC4)n3c2Cl)N1C` [Compound I-18], the fraction unbound in data set [1] (Mouse brain proteins (Table 9)) came out at 0.002. Also, the fraction unbound in data set [2] (setting [5]) is 0.054. In addition, in data set [3], the Papp A→B at 90 min, 10 μM lay within 0.1 to 10 ×10⁻⁶ cm/s; the apparent permeability from basolateral to apical (Papp B→A) at 90 min, 10 μM lay within 0.1 to 10 ×10⁻⁶ cm/s; the efflux ratio at 90 min, 10 μM was 0.1 to 10. In data set [4], the Kp uu is 0.43, the Kp came out at 11.8, the clearance is 245 mL/min/kg and the half-life was 20.6 min. Besides, the AUC(0-t) in data set [4] (setting [6]) was 2060 ng·h/mL. For the same molecule, the AUC(0-t) in data set [4] (setting [7]) came to 175 ng·h/mL.

In the case of `CCN1CCN(c2cccc3nc([C@H]4CCC[C@@H](c5ncccc5C)N4C)c(Br)n23)CC1` [Compound I-19], the fraction unbound in data set [1] (Mouse brain proteins (Table 9)) is 0.001. Besides, the fraction unbound in data set [2] (setting [5]) was 0.028. Also, in data set [3], the Papp A→B at 90 min, 10 μM lay within 0.1 to 10 ×10⁻⁶ cm/s; the Papp B→A at 90 min, 10 μM was 0.1 to 10 ×10⁻⁶ cm/s; the efflux ratio at 90 min, 10 μM was in the range of 0.1 to 10. Moreover, in data set [4], the Kp uu turned out to be 0.32, the Kp was 8.84, the clearance was 223 mL/min/kg and the half-life is 21.8 min. Further, in data set [4] (setting [6]), the AUC(0-t) amounted to 1690 ng·h/mL. Also, the AUC(0-t) in data set [4] (setting [7]) stood at 191 ng·h/mL.

Take `Cc1cccnc1[C@@H]1CCC[C@H](c2nc3cccc(N4CCN(C(C)C)CC4)n3c2Br)N1C` [Compound I-20]: in data set [1] (Mouse brain proteins (Table 9)), the fraction unbound was found to be 0.001. Moreover, the fraction unbound in data set [2] (setting [5]) amounted to 0.021. In data set [3], the Papp A→B at 90 min, 10 μM lay within 0.1 to 10 ×10⁻⁶ cm/s; the Papp B→A at 90 min, 10 μM is 0.1 to 10 ×10⁻⁶ cm/s; the efflux ratio at 90 min, 10 μM was in the range of 0.1 to 10. In data set [4], the Kp uu worked out at 0.3, the Kp was 6.29, the clearance was 173 mL/min/kg and the half-life was 22.4 min. In addition, the AUC(0-t) in data set [4] (setting [6]) worked out at 1520 ng·h/mL. The AUC(0-t) in data set [4] (setting [7]) amounted to 241 ng·h/mL.

For `Cc1cccnc1[C@@H]1CCC[C@H](c2nc3cccc(N4CCC(N(C)C)CC4)n3c2Cl)N1C` [Compound I-114], the fraction unbound in data set [1] (Mouse brain proteins (Table 9)) came out at 0.003. Besides, the fraction unbound in data set [2] (setting [5]) is 0.028. Moreover, in data set [3], the Papp A→B at 90 min, 10 μM was 0.1 to 10 ×10⁻⁶ cm/s; the Papp B→A at 90 min, 10 μM fell in the range of 0.1 to 10 ×10⁻⁶ cm/s; the efflux ratio at 90 min, 10 μM lay in the range of 0.1 to 10. In data set [4], the Kp uu stood at 0.08, the Kp was 0.76, the clearance is 117 mL/min/kg and the half-life is 43.2 min. In addition, the AUC(0-t) in data set [4] (setting [6]) is 205 ng·h/mL. Further, in data set [4] (setting [7]), the AUC(0-t) worked out at 267 ng·h/mL.

As for `Cc1cccnc1[C@@H]1CCC[C@H](c2nc3cccc(N4CCN(C)CC4)n3c2Cl)N1` [Compound I-146], the fraction unbound in data set [1] (Mouse brain proteins (Table 9)) came to 0.006. Besides, the fraction unbound in data set [2] (setting [5]) stood at 0.053. In data set [3], the apical-to-basolateral permeability (Papp A→B) at 90 min, 10 μM fell in the range of 10 to 30 ×10⁻⁶ cm/s; the Papp B→A at 90 min, 10 μM was 10 to 30 ×10⁻⁶ cm/s; the efflux ratio at 90 min, 10 μM was in the range of 0.1 to 10. Also, in data set [4], the Kp uu stood at 0.21, the Kp is 1.86, the clearance was 7.22 mL/min/kg and the half-life is 361 min. For the same molecule, in data set [4] (setting [6]), the AUC(0-t) was 1640 ng·h/mL. The AUC(0-t) in data set [4] (setting [7]) was determined as 884 ng·h/mL.

For the molecule `Cc1cccnc1[C@@H]1CCC[C@H](c2cn3c(N4CCN(C)CC4)cccc3n2)N1` [Compound I-187], the fraction unbound in data set [1] (Mouse brain proteins (Table 9)) was determined as 0.071. In addition, in data set [2] (setting [5]), the fraction unbound amounted to 0.249. Also, in data set [3], the Papp A→B at 90 min, 10 μM lay within 0.1 to 10 ×10⁻⁶ cm/s; the Papp B→A at 90 min, 10 μM lay in the range of 10 to 30 ×10⁻⁶ cm/s; the efflux ratio at 90 min, 10 μM was in the range of 0.1 to 10. Moreover, in data set [4], the Kp uu turned out to be 0.05, the Kp came to 0.22, the clearance was 127 mL/min/kg and the half-life was 21.2 min. The AUC(0-t) in data set [4] (setting [6]) came to 76.5 ng·h/mL. In addition, the AUC(0-t) in data set [4] (setting [7]) stood at 335 ng·h/mL.
